Results reported in patent publication US20090117089A1, “GLYCOLIPIDS AND ANALOGUES THEREOF AS ANTIGENS FOR NK T CELLS” (The Rockefeller University, priority 2005, published 2009).
Entries after “also recorded” stand apart in the source; their conditions may differ.

Legend:
[1] = system: allogeneic C57B1/6 or syngeneic T cells; assay: Stimulation of the mixed leukocyte reaction (MLR) by DCs; assay type: cell-based, mouse
Method: Stimulation of the mixed leukocyte reaction (MLR) by DCs. Spleen DCs were isolated using anti-CD11c magnetic beads 8 h after administration of αGalCer, 24, or PBS. Graded numbers of spleen DCs from BALB/C mice were irradiated and cultured with 2×10^5 allogeneic C57B1/6 or syngeneic T cells, isolated using anti-CD4 coated magnetic beads (Miltenyi Biotech), in a 96-well flat-bottom plate for 88 h. During the final 16 h, ^3H-thymidine (1 μCi/well) was added.

spleen CD11c+ DCs = assay: DC maturation in vivo (surface markers, flow cytometry); parameters: species or system mouse; conditions: for dose dependence of DC maturation: 2, 0.2, 0.02 and 0.002 μg/mouse; for DC maturation response compared with αCD40 mAb and polyIC: 15 h following i.v. administration; for DC maturation in Jα281−/− mice: mice lacking NKT cells; for phenotypic changes of DC maturation (CD40, CD86, MHC class II, B7-H1, B7-DC up, CD119 down): mouse, in vivo; for induction of splenic DC maturation in vivo: surface activation markers
Method: 2×10^7 irradiated J558-Ld^− cells, were injected i.v. or s.c. into Balb/c mice with or without α-Gal Cer as a DC maturation stimulus. In some experiments we compared α-Gal Cer to agonistic anti-CD40 mAb (1C10, 25 μg i.p.) or the toll like receptor ligands, poly IC ([…], Invivogen) or lipopolysaccharide (20 μgm, Sigma). The mice had been given CFSE-labeled PICTL CD8^+ T cells i.v. 1 d earlier, or were naive animals. In some experiments, mice were sacrificed 3 d later, and T cell division and activation in spleen were analyzed by flow cytometry. Additionally, 7 d or 2 months later, 5×10^6 live J558 tumor cells were inoculated subcutaneously. 5×10^6 Meth A fibrosarcoma was used as a control tumor for challenge. Tumor cell growth was measured with calipers every other day. Mice were scored positive for tumor as soon as tumors became palpable and grew progressively. Mice were euthanized when tumor size exceeded 400 mm^2.
T-cell division, phagocytosis of CFSE-labeled tumor cells and acquisition of cell surface-activation markers were determined by flow cytometry. Briefly, spleens were harvested and low-density splenocytes were stained with CD11c-APC and CD8α-PE, CD11b-PE, B220-PE or CD4-PE for the up-take examination. For in vivo proliferation of P1CTL T-cells, spleens were harvested and the splenocytes suspension was staining with CD8α-Cy, Vα8α-PE, CD25-PE, CD62L-PE. For intracellular cytokine staining, splenocytes were stimulated in vitro with 1 µg/ml P1A peptide in 5 μg/ml brefeldin A (Sigma-Aldrich) at 37° C. for 4 hrs. The cells were first stained with CD8α-Cy-Chrome™, fixed and permeabilized with cytofix-cytoperm buffer (BD Biosciences), and stained with PE conjugated mAbs to IL-2 or IFN-γ.
Flow cytometry. Acquisition of cell surface-activation markers was determined by flow cytometry. […] Spleen CD11c+ DCs were isolated using anti-CD11c magnetic beads and stained with CD11c-FITC, CD8α− allophycocyanin, and PE-Conjugated I-Ad, CD40, CD80, CD86, CD119, B7-H1 and B7-DC. We used a FACSCalibur™ with data analysis in FlowJo (Tree Star).

[2] = system: human NKT cells (Vα24/Vβ11); assay: Human dendritic cell mediated NKT cell expansion; assay type: cell-based; conditions: DCs loaded with glycolipid; data not shown
[3] = system: CD1d reactive T cell hybridomas with an invariant Vα14i T cell antigen receptor; assay: 1.2 hybridoma assay (IL-2 release by ELISA); assay type: cell-based, mouse
Method: As a measure of T cell activation, IL-2 release into the tissue culture medium was measured after 16 hours culture by an ELISA assay.
As a measure of T cell activation, IL-2 and IFN-γ release into the tissue culture medium was measured after 16 hours culture by an ELISA assay.

[4] = system: serum IFN-γ, IL-12p70 and other cytokines; assay: Serum cytokines (Luminex); assay type: in vivo, mouse; conditions: for serum IFNγ: 15 hours; for serum IFN-γ, IL-12p70, IL-4, TNF-α and IL-2 response: 2, 6, 12 and 24 h; for serum IFN-γ and IL12p70 release in Jα281−/− mice: i.v. injection
Method: Serum cytokines. […] 25 μl of sample was preincubated with serum diluent and incubated for 2 h with Beadmates coated with anti-cytokine mAbs. The fluid was then aspirated and the wells incubated for 1.5 h with biotin-conjugated anti-cytokine mAbs followed by 30 min incubation with Beadlyte streptavidin-PE secondary antibody. Samples were acquired in duplicate by Luminex and analyzed using Beadview software (Upstate).

[5] = system: DCs from bone marrow progenitors; assay: Direct DC maturation from bone marrow progenitors in culture; assay type: cell-based; conditions: data not shown
[6] = system: spleen CD11c+ cells (DCs and NK cells); assay: Cytokine production by DCs after in vivo glycolipid; parameters: species or system mouse; conditions: for IL-12p40, IL-6 and TNF-α from DCs of primed mice: cultured in the presence of αCD40, ELISA and Luminex, data not shown
Method: Cytokine production by DCs. After mice were given αGalCer or Compound 24 i.v., CD11c+ cells were isolated with anti-CD11c magnetic beads and cultured 4 h in the presence of Golgistop (from Cytofix/CytoPerm Plus kit; BD Biosciences). Cells were then stained for surface markers (CD11c and DX-5), permeabilized in 100 μl Cytofix/Cytoperm solution using manufacturer's instructions and stained for intracellular cytokines (IFN-γ and IL-12).

[7] = system: human NKT cells (Vα24/Vβ11); assay: Human dendritic cell mediated NKT cell expansion; assay type: cell-based; parameters: NKT cell expansion (Table 1): unit not given here; conditions: for NKT cell expansion by loaded human DCs: DC to responder ratio 1:10
Text: Human dendritic cell mediated NKT cell expansion. CD14+ monocytes were isolated from PBMC using anti-CD14 magnetic microbeads and cultured in the presence of GM-CSF and IL-4 to generate DCs, followed at day 5-6, by maturation in an inflammatory cytokine cocktail as described herein. To stimulate NKT cells, DCs were pulsed with α-GalCer and the tested analogs, and cultured with CD14− cells at a DC: responder ratio of 1:10. NKT cell expansion was monitored by flow cytometry based on the expression of the invariant NKT cell receptor (Vα24/Vβ11).

[8] = 2 μg or 0.2 μg, 2, 6, 12 h in vivo, intracellular staining

Row | Molecule | stimulation of allogeneic T cells (allo-MLR) by DCs from treated mice [1] | stimulation of syngeneic T cells (syn-MLR) by DCs from treated mice [1] | dose dependence of DC maturation (spleen CD11c+ DCs) | DC maturation response compared with αCD40 mAb and polyIC (spleen CD11c+ DCs) | surface markers on CD11c+CD8− DCs (spleen CD11c+ DCs; 15 hours after i.v. glycolipid) | DC maturation in Jα281−/− mice (spleen CD11c+ DCs) | phenotypic changes of DC maturation (CD40, CD86, MHC class II, B7-H1, B7-DC up, CD119 down) (spleen CD11c+ DCs) | induction of splenic DC maturation in vivo (spleen CD11c+ DCs) | production of IFNγ, IL-13 and IL-2 by NKT cells [2] | serum IL-12p70 ([4]; 0.02 μg, 15 h) [pg/mL] | serum IFNγ ([4]; 0.02 μg) [pg/mL] | serum IFN-γ, IL-12p70, IL-4, TNF-α and IL-2 response ([4]; 2 μg i.v.) | serum IL-12p70 ([4]; 2 μg i.v., by 6 h) [pg/mL] | serum IFN-γ ([4]; 2 μg i.v., by 12 h) [pg/mL] | serum IL-12p70 ([4]; 2 μg i.v., by 12 h) [pg/mL] | serum IFN-γ and IL12p70 release in Jα281−/− mice [4] | direct stimulation of DC maturation [5] | IL-12p40, IL-6 and TNF-α from DCs of primed mice [6] | NKT cell expansion by loaded human DCs [7] | NKT cell expansion (Table 1) ([7]; Donor 1) | further results
1 | 3-O-sulfo-alpha-galactosylceramide [Compound 24] | equally potent stimulators of the allo-MLR | no stimulatory activity in the syn-MLR | correlated with the dose of glycolipid administered | paralleled and exceeded those seen with other known stimuli for DC maturation in vivo | induced strong upregulation of CD86, B7-H1 and B7-DC but only slightly upregulated MHC II, CD40 and CD80 | did not mature | induced similar phenotypic changes of maturation | rapid and efficient inducers of splenic DC maturation in vivo | induced rapid production of IFNγ, IL-13 and IL-2 | ~900 | ~1200 | significantly higher at all time points examined | ~1000 | ~3000 | ~900 | lacked the ability to release IFN-γ and IL12p70 into the serum | unable to directly stimulate DC maturation from bone marrow progenitors in culture | significant but comparable amounts of IL-12p40, IL-6 and TNF-α | efficiently expanded human NKT cells; also recorded: comparable or higher than expansion mediated by DCs loaded with αGalCer | 3.19 | upregulation of activation markers on CD11c+CD8+ DCs (spleen CD11c+ DCs; 15 hours after i.v. glycolipid, 2 or 0.2 μg per mouse): comparable to αGalCer; biological activity in the 1.2 hybridoma assay (IL-2 secretion) [3]: moderately active; serum IFN-γ and IL-12p70, 24 vs. αGalCer ([4]; all doses tested, 15 hours after i.v. injection): at least 2.5 fold; production of IFN-γ by CD11c+DX5+ NK cells, vs. αGalCer [6, 8]: significantly higher; production of IL-12 by CD11c+DX5− DCs, vs. αGalCer [6, 8]: significantly higher; NKT cell expansion (Table 1) ([7]; Donor 2): 5.95; NKT cell expansion (Table 1) ([7]; Donor 3): 1.51; NKT cell expansion (Table 1) ([7]; Donor 4): 4.95
2 | CCCCCCCCCCCCCCCCCCCCCCCCCC(=O)N[C@@H](CO[C@H]1O[C@H](CO)[C@H](O)[C@H](O)[C@H]1O)[C@H](O)[C@H](O)CCCCCCCCCCCCCC [α-GalCer, 2S,3S,4R-1-O(α-galactopyranosyl)-2(N-hexacosanoylamino)-1,3,4-octadecanetriol] | equally potent stimulators of the allo-MLR | no stimulatory activity in the syn-MLR | correlated with the dose of glycolipid administered | paralleled and exceeded those seen with other known stimuli for DC maturation in vivo | induced strong upregulation of CD86, B7-H1 and B7-DC but only slightly upregulated MHC II, CD40 and CD80 | did not mature | induced similar phenotypic changes of maturation | rapid and efficient inducers of splenic DC maturation in vivo | induced rapid production of IFNγ, IL-13 and IL-2 | ~50 | ~100 | induced rapid increases in serum IFN-γ, IL-12p70, IL-4, TNF-α and IL-2 concentrations | ~600 | ~1200 | ~200 | lacked the ability to release IFN-γ and IL12p70 into the serum | unable to directly stimulate DC maturation from bone marrow progenitors in culture | significant but comparable amounts of IL-12p40, IL-6 and TNF-α | efficient inducers of NKT cell expansion in culture | 3.55 | marker expression on DCs that captured dying tumor cells (CD11c+ CFSE+) (spleen CD11c+ DCs; co-injection with irradiated J558− cells i.v.): strongly upregulated the expression of antigen presenting and costimulatory molecules; maturation of total CD11c+ splenic DCs (MHC II, CD80, CD86, B7-H1, B7-DC) (spleen CD11c+ DCs; co-injection with irradiated J558− cells i.v., 5 hours): resulted in the maturation of the total CD11c^+ DC population; IL-2 release from the hybridomas ([3]; 1 μg/ml, CD1d transfected A20 cells): greatest amount of IL-2 release; IL-2 secretion ([3]; CD1d coated plates, Sphingomonas glycolipids and analogues): greater IL-2 secretion; serum IFN-γ ([4]; 2 μg i.v., by 6 h): 6000 pg/mL; NKT cell expansion (Table 1) ([7]; Donor 2): 2.65; NKT cell expansion (Table 1) ([7]; Donor 3): 1.53; NKT cell expansion (Table 1) ([7]; Donor 4): 3.55
